Results taken from article PMC6331714 (ChemistryOpen, 2019).

Legend:
XIAP = XIAP (Homo sapiens, UniProt P98170); assay: fluorescence polarization competition with AVPFAQK; format: binding
[1] = target: X-linked inhibitor of apoptosis protein (XIAP) BIR3 domain; assay: fluorescence polarisation

Sequence of XIAP (P98170 241-356 limits assumed): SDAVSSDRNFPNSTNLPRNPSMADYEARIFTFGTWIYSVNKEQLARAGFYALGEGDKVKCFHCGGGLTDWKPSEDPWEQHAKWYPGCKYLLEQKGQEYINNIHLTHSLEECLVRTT

IC50 (XIAP) [nM] | IC50 [1] [nM] | Molecule
210 |  | C[C@H](N)C(=O)N[C@H]1CNC(=O)C[C@H]2CC[C@@H](C(=O)NC(c3ccccc3)c3ccccc3)N2C1=O [ZJ-1, (5 S ,8 S ,10aR)‐5‐((S)‐2‐aminopropanamido)‐N‐benzhydryl‐2,6‐dioxodecahydropyrrolo[1,2‐a][1,5] diazocine‐8‐carboxamide]
 | 1150 | AVPI [AVPI, N-terminal tetrapeptide binding motif of Smac/DIABLO (Ala-Val-Pro-Ile)]
